This note sets out measurements from ChEMBL document CHEMBL3045026, “Cytotoxic clerodane diterpenes from Glossocarya calcicola” (Phytochemistry, 2005).

Molecules are shown by their SMILES. Converted amounts (≈) assume the structure as drawn.

For orientation: IC50 means the concentration that gives 50% inhibition. A higher IC50 goes with lower potency.

The test system of one assay is HepG2. Kind of assay: Cytotoxicity against Homo sapiens (human) HepG2 cells. The assay is classed as functional, cell-based.
The nature of assay [1]: Cytotoxicity against Drosophila melanogaster D.mel-2 cells. The assay is classed as functional, cell-based.

Consider `C=C1CC[C@@H](OC(=O)C(C)C)[C@H]2[C@@]1(C)[C@@H](O)C(=O)C(=C)[C@]2(C)C[C@@H](OC(=O)/C(C)=C/C)[C@]1(O)COC(=O)C1` (relative stereo), for which the IC50 was 2.06 µg/mL (≈ 3.87 µM) in the assay with HepG2 and 9.04 µg/mL (≈ 17 µM) in assay [1].

For `C=C1CC[C@@H](OC(=O)C(C)CC)[C@H]2[C@@]1(C)[C@@H](O)C(=O)C(=C)[C@]2(C)C[C@@H](OC(=O)/C(C)=C/C)[C@]1(O)COC(=O)C1` (relative stereo), the half-maximal inhibitory concentration (IC50) in the assay on HepG2 amounted to 2.1 µg/mL (≈ 3.84 µM); in assay [1], 8.3 µg/mL (≈ 15.2 µM).
